Data reported in US9975860B2, “Anti-angiogenic compounds” (UNIVERSITY COLLEGE DUBLIN—NATIONAL UNIVERSITY OF IRELAND, …, priority 2014, dated 2018).
Entries after “also recorded” stand apart in the source; their conditions may differ.

Legend:
[1] = system: primary hyaloid vessels in zebrafish; experiment: Quantification of primary hyaloid vasculature branch number in Tg(fli1:EGFP) zebrafish; assay type: in vivo
Description: All experiments were carried out under ethical approval granted by the UCD animal research ethics committee. Tg(fli1:EGFP) zebrafish were maintained according to standard procedures on a 14 hr light/10 hr dark cycle at 28° C. Embryos were obtained by natural spawning and developmental stages established by time and morphological criteria. At 48 hours post fertilisation (hpf), 5 embryos per well were placed in 400 μl of Embryo Medium/0.1% DMSO and incubated with compound (typically, 10 μM) at 28° C. on a 14 h light/10 h dark cycle. At 5 days post fertilisation (dpf), larvae were euthanised, and fixed in 4% PFA at 4° C. overnight before analysis.
Prior to analysis of the intraocular vasculature, the control and treated larvae were observed under an Olympus SZX16 stereo zoom microscope and screened for general malformations. Overall patterning of the vasculature (fin, gut and intersegmental vessels) was examined for abnormalities. Right lenses were dissected from the larvae and transferred to depression slides for observation under epi-fluorescence in the Olympus SZX16. Patterning of the hyaloid vessels on the treated larval lenses was compared to 0.1% DMSO controls and the archetypal pattern previously described (Alvarez et al., 2007; Alvarez et al., 2009). The number of primary vessels radiating from the back of the lens (3-4 main branches at 5 dpf in controls and previously described), was counted and the average number was graphed for each drug.
(§1) All experimental protocols were carried out as per example 1 and 2. Briefly, zebrafish larvae were treated with 10 μM of AT-051/41206012 (chemical name 2-[2-(2-methoxyphenyl)ethenyl]pyrazine) purchased from Specs (The Netherlands). At 6 or 48 hours post fertilisation (hpf), 5 embryos per well were placed in 400 μl of Embryo Medium/0.1% DMSO and incubated with 10 μM AT-051/41206012 at 28° C. on a 14 h light/10 h dark cycle. Larvae were treated from 6-48 hpf (intersegmental vessel study) or from 48 to 120 hpf (primary hyaloid vessel study). At the end of the study, larvae were euthanized and fixed in 4% PFA at 4° C. overnight before analysis.
(§2) The number of intersegmental vessels was counted and the average number was graphed for each drug. Right lenses were dissected from the larvae and transferred to depression slides for observation and the number of primary hyaloid vessels radiating from the back of the lens (3-4 main branches at 5 dpf in controls and previously described), was counted and the average number was graphed for each drug.

[2] = system: human retinal (ARPE-19) cells; experiment: MTT cell viability assay in ARPE-19; assay type: cell-based; details: 5, 10, 25, 50, 75 or 90 μM, 96 hours
Description: A 3-(4,5-dimethylthiozol-2-yl)-2,5-diphenyltetrazolium bromide (MTT) dye reduction assay was carried out to determine the cytotoxicity of each compound on either human microvascular endothelial cells (HMECs) or human retinal pigmented epithelium cells (ARPE-19). Cells were maintained in a 95% air and 5% CO2 atmosphere at 37° C. in Dulbecco modified Eagle medium (DMEM, Sigma Aldrich) with 10% fetal bovine serum, 2 mM Gibco® L-glutamine and 100 units/ml penicillin, 1 mg/ml streptomycin (Invitrogen) supplementation. On day 1, cells were trypsinized (Trypsin-EDTA 1×) and seeded 1.4×10^4 cells per well of a 96 well plate and incubated overnight. On day 2, cells were serum staved in DMEM with L-glutamine and penicillin-streptomycin supplementation for 24 h. On day 3, cells were drug treated for 24 h (HMECs) or 96 h (ARPE-19 cells) with 0.1% DMSO or 10 μM to 90 μM of each compound 4, 8, 15, 18 or 20, with 4 replicate wells of each compound. After 24-96 h, cells were incubated with […] 5 mg/ml MTT labelling Reagent (Roche) for 2 h. Subsequently, when purple formazan crystals formed cells were incubated with 1× solubilisation solution (Roche) for 4 h and absorbance read at 570 nm using a microplate reader.

mouse aortic ring = experiment: Ex vivo mouse aortic ring assay (sprout formation); details: 10 μM; C57/BL6 mouse aortic rings in matrigel; vs 0.1% DMSO; hydrochloride
Description: Aortae from sex matched C57/BL6 littermates were cleansed of adipose tissue, cut into 2 mm rings and immersed in matrigel. Aortic rings (6 per experiment) were treated with 0.1% DMSO (vehicle control/VC) or with 10 μM of Compound 4, Compound 12, Compound 15 or Compound 20. Sprouts from the perimeter of the aortic ring were counted and quantified as percentage of vehicle control (VC).

[3] = system: intersegmental vasculature in zebrafish; experiment: Quantification of intersegmental vessel number in zebrafish; assay type: in vivo; details: 10 μM; zebrafish embryos treated 6 hpf to 48 hpf
Description: At 6 hours post fertilisation, 5 embryos per well were placed in 400 μL of embryo medium/0.1% DMSO and incubated with 10 μM compound at 28° C. on a 14 h light/10 h dark cycle. At 48 hpf larvae were manually dechorionated, euthanised, and fixed in 4% PFA at 4° C. overnight before analysis. The larvae were then washed with PBS and transferred to depression slides for observation under epi-fluorescence in an Olympus SZX16 fluorescent microscope. The number of intersegmental vessels was counted and the average number was graphed for each drug.
as §1, §2

[4] = 10 μM, zebrafish larvae treated 48 hpf to 5 dpf, vs 0.1% DMSO control
[5] = concentrations below 10 μM (range 1, 2.5, 5, 7.5 and 10 μM tested), zebrafish larvae 48 hpf to 5 dpf

SMILES	inhibition of developmental angiogenesis of the hyaloid vasculature (number of primary hyaloid vessels) [1, 4]	cell viability (MTT assay) [2]	inhibition of developmental angiogenesis of the hyaloid vasculature (number of primary hyaloid vessels) [1, 5]	angiogenesis (sprout formation) in aortic rings (mouse aortic ring)	inhibition of developmental angiogenesis of intersegmental vessels (number of intersegmental vessels) [3]
Cc1ccc(O)c(/C=C/c2cnccn2)c1.Cl [Compound 14, (E)-4-Methyl-[2-(2-(Pyrazin-2-yl)vinyl)]phenol hydrochloride]	inhibit developmental angiogenesis of the zebrafish hyaloid vasculature in a statistically significant manner				
Cl.Oc1ccccc1C#Cc1cnccn1 [Compound 20, 2-[2-(pyrazin-2-yl)ethynyl]phenol hydrochloride]	inhibit developmental angiogenesis of the zebrafish hyaloid vasculature in a statistically significant manner	does not affect cell viability	inhibit developmental angiogenesis of the zebrafish hyaloid vasculature in a statistically significant manner	block angiogenesis (sprout formation); also recorded: inhibit the formation of sprouts in a statistically significant manner	inhibit developmental angiogenesis of zebrafish intersegmental vessels in a statistically significant manner
Cl.Oc1ccccc1/C=C/c1ncccn1 [Compound 15, (E)-2-[2-(Pyrimidin-2-yl)vinyl]phenol hydrochloride]	inhibit developmental angiogenesis of the zebrafish hyaloid vasculature in a statistically significant manner	does not affect cell viability		block angiogenesis (sprout formation); also recorded: inhibit the formation of sprouts in a statistically significant manner	
Oc1ccccc1/C=C/c1cnccn1 [Compound 3, (E)-2-[2-(Pyrazin-2-yl)vinyl]phenol]	inhibit developmental angiogenesis of the zebrafish hyaloid vasculature in a statistically significant manner		inhibit developmental angiogenesis of the zebrafish hyaloid vasculature in a statistically significant manner		inhibit developmental angiogenesis of zebrafish intersegmental vessels in a statistically significant manner
Cl.Oc1ccccc1/C=C/c1ccccn1 [Compound 2, (E)-2-[2-(Pyridin-2-yl)vinyl]phenol hydrochloride]	inhibit developmental angiogenesis of the zebrafish hyaloid vasculature in a statistically significant manner		inhibit developmental angiogenesis of the zebrafish hyaloid vasculature in a statistically significant manner		inhibit developmental angiogenesis of zebrafish intersegmental vessels in a statistically significant manner
Cl.Oc1ccccc1/C=C/c1ncc[nH]1 [Compound 23, (E)-2-(2-(IH-Imidazol-2-yl)vinyl)phenol hydrochloride]	inhibit developmental angiogenesis of the zebrafish hyaloid vasculature in a statistically significant manner				
Cc1cccc(/C=C/c2ccccc2O)n1.Cl [Compound 8, (E)-2-[2-(6-Methylpyridin-2-yl)vinyl]phenol hydrochloride]	inhibit developmental angiogenesis of the zebrafish hyaloid vasculature in a statistically significant manner	does not affect cell viability	inhibit developmental angiogenesis of the zebrafish hyaloid vasculature in a statistically significant manner		
COc1ccccc1C#Cc1cnccn1 [Compound 19, 2-[2-(2-Methoxyphenyl)ethynyl]pyrazine]			inhibit developmental angiogenesis of the zebrafish hyaloid vasculature in a statistically significant manner		inhibit developmental angiogenesis of zebrafish intersegmental vessels in a statistically significant manner
Cc1ccc(O)c(/C=C/c2cnccn2)c1 [Compound 13, (E)-4-Methyl-[2-(2-(pyrazin-2-yl)vinyl)]phenol]	inhibit developmental angiogenesis of the zebrafish hyaloid vasculature in a statistically significant manner				
Oc1ccccc1/C=C/c1ccccn1 [Compound 1, (E)-2-[2-(Pyridin-2-yl)vinyl]phenol]	inhibit developmental angiogenesis of the zebrafish hyaloid vasculature in a statistically significant manner				
COc1ccccc1/C=C/c1cnccn1 [AT-051/41206012, 2-[2-(2-methoxyphenyl)ethenyl]pyrazine]	significantly inhibits developmental angiogenesis of zebrafish hyaloid vessels; also recorded: does inhibit developmental angiogenesis of the zebrafish hyaloid vasculature in a statistically significant manner				does not inhibit developmental angiogenesis of the intersegmental vessels; also recorded: does not affect the development of intersegmental vessels
C/C(=C\c1ccccc1O)c1cnccn1 [Compound 11, (E)-2-[2-(Pyrazin-2-yl)prop-1-enyl]phenol]	inhibit developmental angiogenesis of the zebrafish hyaloid vasculature in a statistically significant manner				
